Consider one compound from PMC8398847, “Isavuconazole: Thermodynamic Evaluation of Processes Sublimation, Dissolution and Partition in Pharmaceutically Relevant Media” (Molecules, 2021).

In general, solubility refers to the dissolved amount per volume that the medium holds.

The nature of data set [1]: Solubility by isothermal saturation (shake flask) method. Format: physicochemical. On the procedure: Solubility of drug was measured by the classical shake flask method at five temperatures: 293, 298, 303, 308 and 313 ± 0.2 K. This method determines the concentration of a test substance in a saturated solution, i.e., in equilibrium with the solid phase at a strictly fixed temperature. The compound studied and the selected solvent were placed into glass ampoules and stirred in an air thermostat.
The solid phase was sedimentated after stirring within 2 h. Then, the solutions were centrifuged using a thermostatic centrifuge Biofuge Stratos (Thermo scientific, Germany) at the appropriate temperature of the experiment for 5 min. The solid phase was removed by filtration using a filter MILLEX®HA 0.22 μm (Millipore, Ireland). The resulting solution, if necessary, was diluted with an appropriate solvent and examined on a Carry 50 spectrophotometer (Varian, Palo Alto, CA, USA, Software Version 3.00 (339)) in the ultraviolet region of the spectrum (operating wavelength range λ = 200–400 nm) with an accuracy of 2–4%.
The experimental value of solubility is an average value of three independent experiments. The absorption maximums for isavuconazole in the selected solvents have been determined at 274 nm in buffers solutions (Figure 4) and as 283 nm in hexane and alcohols (Figure S8). The calibration was carried out at room temperature using the solutions with known concentrations of drug in selected solvents.
The mole fraction concentration was calculated based on molarity (S, mol·L^−1) using Equation (8):(8) x=M2S/S(M2−M1)+1000ρ, where M1 and M2 are the molar masses of […], respectively, and ρ (g·cm^−3) is the density of the pure solvents. Densities of buffers solutions (pH 1.2, 2.0 and 7.4) were measured using densitometer DMA 4500 (Anton Paar, Austria) and published earlier. The values of densities using for conversion are given in Table S4 (Supporting Information).

A short description of data set [2]: PXRD analysis of bottom phases after solubility experiments. Format: physicochemical. Conditions: all the studied solvents; no solvated forms. The protocol:
The IVZ solubility values in buffer solutions of different acidity, ethanol, propanol, 1-octanol and hexane within the temperature range of 293.15–313.15 K were determined by the isothermal saturation method and are presented in Table 2 and Figure 5. After the solubility experiments, the bottom phases were removed from the saturated solutions and analyzed by the PXRD method.
After the solubility study was complete, PXRD analysis was performed on isavuconazole powders recovered from solvents. All samples were measured at 40 kV and 40 mA using a Bruker D8 Advance diffractometer with CuKa radiation (λ = 1.5406 Å) at room temperature. Diffraction patterns for the samples were collected by changing the angle of diffraction (2θ) from 5° to 30° with a step size 0.03°.

Each structure is given as a SMILES string. ≈ marks a conversion by molar mass, not a printed value. Read-outs that look alike come from different tables or passages of the source.

Regarding `C[C@@H](c1nc(-c2ccc(C#N)cc2)cs1)[C@](O)(Cn1cncn1)c1cc(F)ccc1F` [IVZ, Isavuconazole], the solubility in data set [1] (aqueous buffer solutions, pH 7.4, buffers pH 7.4, 2.0, 1.2, 298.15 K, read-out: solubility in aqueous buffer solutions) was 8.13 to 42.4 µM (≈ 3.56 to 18.5 µg/mL); in data set [1] (buffer pH 7.4, pH 7.4, aqueous buffer, thermodynamic from solid, buffer pH 7.4, 293.15 K, read-out: solubility S·10^6) it was 6.67 µM (≈ 2.92 µg/mL); in data set [1] (buffer pH 7.4, pH 7.4, aqueous buffer, thermodynamic from solid, buffer pH 7.4, 298.15 K, read-out: solubility S·10^6), 8.13 µM (≈ 3.56 µg/mL); in data set [1] (buffer pH 7.4, pH 7.4, aqueous buffer, thermodynamic from solid, buffer pH 7.4, 303.15 K, read-out: solubility S·10^6) it was 10 µM (≈ 4.37 µg/mL); in data set [1] (buffer pH 7.4, pH 7.4, aqueous buffer, thermodynamic from solid, buffer pH 7.4, 308.15 K, read-out: solubility S·10^6), 12.2 µM (≈ 5.32 µg/mL); in data set [1] (buffer pH 7.4, pH 7.4, aqueous buffer, thermodynamic from solid, buffer pH 7.4, 313.15 K, read-out: solubility S·10^6) it was 14.5 µM (≈ 6.37 µg/mL). In addition, the solubility in data set [1] (ethanol, 298.15 K, read-out: solubility) was 180000 µM (≈ 78700 µg/mL); in data set [1] (hexane, organic solvent or mixture, thermodynamic from solid, hexane, 293.15 K, read-out: solubility S·10^4), 423 µM (≈ 185 µg/mL); in data set [1] (hexane, organic solvent or mixture, thermodynamic from solid, hexane, 298.15 K, read-out: solubility S·10^4) it was 537 µM (≈ 235 µg/mL); in data set [1] (hexane, organic solvent or mixture, thermodynamic from solid, hexane, 303.15 K, read-out: solubility S·10^4) it was 677 µM (≈ 296 µg/mL); in data set [1] (hexane, organic solvent or mixture, thermodynamic from solid, hexane, 308.15 K, read-out: solubility S·10^4), 847 µM (≈ 371 µg/mL); in data set [1] (hexane, organic solvent or mixture, thermodynamic from solid, hexane, 313.15 K, read-out: solubility S·10^4), 1050 µM (≈ 459 µg/mL). For the same compound, the solubility in data set [1] (seven solvents (buffers pH 1.2, 2.0, 7.4; hexane; alcohols), seven solvents, 293.15 to 313.15 K, read-out: solubility, span over solvents) was 6.7 to 300000 µM (≈ 2.93 to 131000 µg/mL). In addition, the “solubility in buffer pH 7.4 lower than in pH 1.2” value in data set [1] (buffer pH 7.4 vs pH 1.2) was 80%. Further, in data set [1] (buffer pH 7.4 vs pH 1.2), the “solubility of uncharged forms in buffer pH 7.4 relative to ionized forms in buffer pH 1.2” value is “five times lower”. The “solid-phase stability during solubility experiments (PXRD)” value in data set [2] is recorded as “stable”.
